These results are taken from patent publication US20190060428A1, “FORMULATIONS FOR NEOPLASIA VACCINES AND METHODS OF PREPARING THEREOF” (The Broad Institue Inc., priority 2015, published 2019).

A short description of this series: physchem. As to conditions: pH 6.

As a reminder, the solubility is the dissolved amount per volume that the medium holds. The low end stands for little dissolved substance, the high end for much dissolved substance.

Bounds are passed on as bounds.

H-MPPPGALMGLALKKKSIPQPTN-OH showed a solubility above 2000 µg/mL.

H-SQSSTPAMLFPAPAAHRTLTYLSQ-OH had a solubility above 2000 µg/mL.

As for H-SHNELADSGIPENSFNVSSLVE-OH, the solubility was above 2000 µg/mL.

H-PAAVDSVTIPPAQCYLSLLHL-OH: the solubility is above 2000 µg/mL.

In turn, H-EEFNRRVRENPWDTQLWMAFVAFQDE-OH displayed a solubility below 2000 µg/mL.

For H-KQYLDHSGNLMSMHNIKIFMFQLLRG-OH, the solubility is below 2000 µg/mL.

On to H-STLPVISDSTTKRRWSALVIGL-OH, for which the solubility was above 2000 µg/mL.

Substance H-IGALNPKRAAFFAEHYESWE-OH returned a solubility below 2000 µg/mL.

Regarding H-HLLQKQTSIQSPSLYGNSSPPLNK-OH, the solubility is above 2000 µg/mL.

In turn, H-RRGGALFASRPRFTPL-OH returned a solubility above 2000 µg/mL.

Take H-SPIKLVQKVASKIPFPDRITEESV-OH: the solubility is above 2000 µg/mL.

In the case of H-LTKLKFSLKKSFNFFDEYF-OH, the solubility was below 2000 µg/mL.

Substance H-MAGPKGFQYRALYPFRRER-OH showed a solubility above 2000 µg/mL.

H-DGGRQHSGPRRHSGAGPKPSSSEWAVCWAP-OH had a solubility above 2000 µg/mL.

With H-HKSIGQPKLSTHPFLCPKPQKMNTSLGQHLTL-OH, the solubility is above 2000 µg/mL.

Turning to H-AAVDSVTIPPAQCYLSLLHLQQRRMQSA-OH, the solubility is above 2000 µg/mL.

Substance H-VKQLERGEASVVDFKKNLEYAAT-OH gave a solubility above 2000 µg/mL.

In the case of H-GSGSQMPAWRTRGAISASSTQKTPTTRL-OH, the solubility was above 2000 µg/mL.

Substance H-TNGPEKNSSSFPSSVDYAASGPRKL-OH had a solubility above 2000 µg/mL.

Substance H-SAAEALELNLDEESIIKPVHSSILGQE-OH returned a solubility above 2000 µg/mL.

Substance H-EAAFSVGATGIITDYPTALRHYLDNHG-OH yielded a solubility below 2000 µg/mL.

In the case of H-ADRRRQRSTFRAVLHFVEGGESEE-OH, the solubility was below 2000 µg/mL.

Take H-GSTLSPVPWLPSEEFTLWSSLSPPG-OH: the solubility was above 2000 µg/mL.

Take H-EVVGGYTWPSGNIYQGYWAQGKR-OH: the solubility was above 2000 µg/mL.

H-LPDEVSGLEQLESIINFEKLTEWTSSNVME-OH registered a solubility above 2000 µg/mL.

Substance H-DRSVLAKKLKFVTLVFRHGDRSPID-OH gave a solubility above 2000 µg/mL.

As to H-FLLQVPGSPVVSPSA-OH, the solubility is above 2000 µg/mL.

Regarding H-PENDDLFMMPRIVDVTSLATEGG-OH, the solubility is above 2000 µg/mL.

Turning to H-DKGHQFHVHPLLHSGDDLDP-OH, the solubility is above 2000 µg/mL.

H-SLRNNMFEISDRFIGIYKTYNITK-OH yielded a solubility above 2000 µg/mL.

Substance H-IAMGFPQKDLKAYTGTIL-OH showed a solubility above 2000 µg/mL.

The substance H-AQRKLYQDVMHENFTNLLSVGHQP-OH gave a solubility above 2000 µg/mL.

H-VSGLEQLESIINFEKL-OH: the solubility is above 2000 µg/mL.

H-SDAFSGLTALPQSILLFGP-OH: the solubility was above 2000 µg/mL.

Substance H-AALCPASRALEEKKGNYV-OH came in with a solubility above 2000 µg/mL.

For the substance H-WCTEMKRVFGFPVHYTDVSNMS-OH, the solubility is above 2000 µg/mL.

As for H-SHLASLKNNVSPVLRSHSFSDPSPKFA-OH, the solubility is above 2000 µg/mL.

H-ALLQNVELRRNVLVSPTPLAN-OH had a solubility above 2000 µg/mL.

H-TSRRLTGLLDHEVQAGRQ-OH registered a solubility above 2000 µg/mL.

The substance H-LRVFIGNIAVNHAPVSLRPGLGLPPGAPPGTVP-OH displayed a solubility below 2000 µg/mL.

Substance H-GSYLVALGAHTGEES-OH yielded a solubility above 2000 µg/mL.

For the substance H-AVGATKVPRNQDWLGVSRQL-OH, the solubility is above 2000 µg/mL.

Substance H-NNGPVTILQRIHHMAASHVNITS-OH gave a solubility below 2000 µg/mL.

Substance H-ERLSIQNFSKLLNDNIFYMS-OH returned a solubility below 2000 µg/mL.

For H-SAVSAASIPAEHINQATNGGGS-OH, the solubility was above 2000 µg/mL.

Take H-YPEPQNKEAFVHSQMYSTDYDQI-OH: the solubility is above 2000 µg/mL.

Substance H-ARLQSKEYPVIFKSIMRQRLISPQL-OH had a solubility above 2000 µg/mL.

The substance H-DEQGREAELARSGPSAAGPVRLKPGLVPGL-OH came in with a solubility above 2000 µg/mL.

For H-SHHTHSYQRYSHPLFLPGHRLDPPI-OH, the solubility is above 2000 µg/mL.

Turning to H-LVGQLKRVPRTGRVYRNVQRPESVS-OH, the solubility is above 2000 µg/mL.

In turn, H-AAVRPEQRPAARGSRV-OH showed a solubility above 2000 µg/mL.

H-LMSNLAFADFCMRMYL-OH: the solubility was below 2000 µg/mL.

The substance H-DPLMTCSEPERLTEILFQRAELE-OH yielded a solubility below 2000 µg/mL.

H-WTPAAPTAMAEVGPGHTPAHPSQGAVPP-OH showed a solubility above 2000 µg/mL.

Turning to H-NILHQEELIAQKKWEIEAKMEQK-OH, the solubility is above 2000 µg/mL.

H-TSGSSTALPGSNPSTMDSGSGD-OH came in with a solubility below 2000 µg/mL.

In turn, H-SVLREDLGQLEYKYQYAYFRMGIKHPD-OH gave a solubility below 2000 µg/mL.

H-HRPRPFSPGKQVSSAPLFMLDLYN-OH had a solubility above 2000 µg/mL.

In turn, H-LHFIMPEKFSFWEDFEE-OH displayed a solubility below 2000 µg/mL.

Substance H-GPLQLPVTRKNMPLPGVVKLPPLPGS-OH showed a solubility above 2000 µg/mL.

In turn, H-KAHVEGDGVVEEIIRYHPFLYDRET-OH came in with a solubility below 2000 µg/mL.

As to H-GAVGATKVPRNQDWL-OH, the solubility was above 2000 µg/mL.

Regarding H-DHAPEFPAREMLLKYQKLLCQERYFL-OH, the solubility was below 2000 µg/mL.

H-GTEPEPAFQDDAVNAPLEFKMAAGSSG-OH registered a solubility above 2000 µg/mL.

With H-VPRIAELMNKKLPSFGPYLE-OH, the solubility was above 2000 µg/mL.

Consider H-DSAVDKGHPNRSALSLTPGLRIGPSGLFLVFLA-OH, for which the solubility was above 2000 µg/mL.

Regarding H-LMGRLQHTFKQKMTGVGASLEKR-OH, the solubility was above 2000 µg/mL.

Turning to H-LLTDRNTSGTTFTLLGVSDYPELQVPLFLVFLA-OH, the solubility is above 2000 µg/mL.

Take H-LNTGLFRIKFKEPLENLI-OH: the solubility was above 2000 µg/mL.

In the case of H-SEIDFPMARSKLLKKKLPSKDL-OH, the solubility was above 2000 µg/mL.

For H-TGKPEMDFVRLAQLFARARPMGLF-OH, the solubility was above 2000 µg/mL.

With H-VDKNGRRRLVYLVENPGGYVAYS-OH, the solubility is above 2000 µg/mL.

Substance H-KLRTIPLSDNTIFRRICTIAKHLE-OH gave a solubility above 2000 µg/mL.

As to H-GLTRISIQRAQPLPPCLPSFRPPTALQGLS-OH, the solubility was above 2000 µg/mL.

In turn, H-LGETMGQVTEKLQPTYMEET-OH registered a solubility above 2000 µg/mL.

On to H-TKDRDLLVVAHDLIWKMSPRTGDAKPS-OH, for which the solubility is above 2000 µg/mL.

H-VNGISSQPQVPFYPNLQKSQYYSTV-OH showed a solubility above 2000 µg/mL.

For the substance H-LSVPFTCGVNFGDSIEDLEI-OH, the solubility is above 2000 µg/mL.

In turn, H-NQVLASRYGIRGFSTIKIFQKGESPV-OH yielded a solubility above 2000 µg/mL.

H-AIISSLFVSYFLYR-OH: the solubility was below 2000 µg/mL.

With H-PAHPSQGAVPPSRAAAEPHLKPSPSELQTA-OH, the solubility was above 2000 µg/mL.

Take H-RGQIKLADFRLARLYSSEESR-OH: the solubility is above 2000 µg/mL.

Regarding H-VARNYLREAVSHNASLEVAILRD-OH, the solubility was below 2000 µg/mL.

The substance H-DATFSDGSLGQLVKNTSATYALS-OH yielded a solubility above 2000 µg/mL.

The substance H-TISLLLIFYNTKEIARTEEHQE-OH gave a solubility below 2000 µg/mL.

On to H-GHQKLPGKIHLFEAEFTQVAKKEPDG-OH, for which the solubility was above 2000 µg/mL.

The substance H-KHLPGVNFPGNQWNPVEGILPS-OH had a solubility above 2000 µg/mL.

H-SAVSAASIPAMHINQATNGGGS-OH had a solubility below 2000 µg/mL.

As for H-YLSHTLGAASSFMRPTVPPPQF-OH, the solubility was above 2000 µg/mL.

Substance H-TTSGDERLYPSPTFYIHENYLQLFE-OH gave a solubility below 2000 µg/mL.

In turn, H-ALSLTPGLRIGPSGLFLVFLAESAVDKGHPNRS-OH gave a solubility above 2000 µg/mL.

As for H-LNYLRTAKFLEMYGVDLHPVYG-OH, the solubility is below 2000 µg/mL.

As for H-RQRRGRLGLPGEAGLEGFEPSDALGPD-OH, the solubility was above 2000 µg/mL.

In turn, H-ISSLFVSYFLYRVVFHFE-OH showed a solubility below 2000 µg/mL.

H-STQHADLTIIDNIKEMNFLRRYK-OH yielded a solubility above 2000 µg/mL.

Take H-AAAFPSQRTSWEFLQSLVSIKQEKPA-OH: the solubility is below 2000 µg/mL.

Substance H-RPAGRTQLLWTPAAPTAMAEVGPGHTP-OH returned a solubility above 2000 µg/mL.

As to H-KLAWRGRISSSGCPSMTSPPSPMFGMTLHT-OH, the solubility was above 2000 µg/mL.

Consider H-LLDILDTAGREEYSAMRDQYMRT-OH, for which the solubility was above 2000 µg/mL.

The substance H-VAGLAASGLHGSAWLVPGEQPVSGPHHGKQ-OH came in with a solubility above 2000 µg/mL.

In turn, H-DHAPEFPAREMLLKYQKLLSQER-OH showed a solubility above 2000 µg/mL.

As for H-TWAGHVSTALARPLGAPWAEPGSCGPGTN-OH, the solubility was above 2000 µg/mL.

With H-KQGWTTEGIWKDVYIIKL-OH, the solubility is below 2000 µg/mL.

Substance H-LENNANHDETSFLLPRKESNIVD-OH had a solubility above 2000 µg/mL.

With H-AESAQRQGPNGGGEQSANEF-OH, the solubility was above 2000 µg/mL.

With H-MSQDIKKADEQIESMTYSTERKT-OH, the solubility was above 2000 µg/mL.

Substance H-KGASLDAGWGSPRWTTTRMTSASAGRSTRA-OH returned a solubility above 2000 µg/mL.

Take H-AIYHKYYHYLYSYYLPASLKNMVD-OH: the solubility was below 2000 µg/mL.

H-NHSAKFLKELTLAMDELEENFRG-OH returned a solubility below 2000 µg/mL.

In the case of H-EDSDKLFESKAELADHQKF-OH, the solubility is above 2000 µg/mL.

In the case of H-NNSKKKWFLFQDSKKIQVEQPQ-OH, the solubility was above 2000 µg/mL.

For H-DSPAGPRRKECTMALAPNFTANNR-OH, the solubility was above 2000 µg/mL.

Regarding H-LKEMNEKVSFIKNSLLSLDSQVGHLQD-OH, the solubility was below 2000 µg/mL.

H-SSELTAVNFPSFHVTSLKLMVSPTS-OH came in with a solubility above 2000 µg/mL.

On to H-PRVDLQGAELWKRLHEIGTEMIITK-OH, for which the solubility was above 2000 µg/mL.

Substance H-WDGPPENDMLLKEICGSLIP-OH came in with a solubility above 2000 µg/mL.

Substance H-SMWKGELYRQNRFASSKESAKLYGS-OH registered a solubility below 2000 µg/mL.

In turn, H-SHQIHSYQLYTHPLLHPWDHRD-OH came in with a solubility above 2000 µg/mL.

As to H-DNHLRRNRLIVVDLFHGQL-OH, the solubility was above 2000 µg/mL.

In turn, H-SSPLGRANGRRFANPRDSFSAMGFQR-OH came in with a solubility above 2000 µg/mL.

Substance H-SGARIGAPPPHATATSSSSFMPGTWGREDL-OH gave a solubility above 2000 µg/mL.

H-FVGKLQRHPVAVDVLL-OH gave a solubility above 2000 µg/mL.

With H-DPDVGVNSLQQYYLSPDLHFSLI-OH, the solubility was below 2000 µg/mL.

H-SGQPAPEETVLFLGLLHGLLLILRRLRGG-OH displayed a solubility below 2000 µg/mL.
